Structures can show the parent of a compound that is named as a salt.
Tests used:
[1] = molecular target: MAO-A enzyme (Homo sapiens (Human), UniProt P21397); assay: Measurement of MAO-A inhibitory activity (MAO-Glo Assay); type: biochemical
[2] = molecular target: human LSD1(172-833) (Homo sapiens (Human), UniProt O60341); assay: Measurement of LSD1 inhibitory activity (time-resolved fluorescence, biotin-histone H3 mono methylated K4 peptide); type: biochemical
Outline: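 Remaining signal detected by TR-FRET after 60 min with europium anti-histone H3 antibody and streptavidin-XL665 in potassium fluoride/0.1% BSA.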

[3] = molecular target: MAO-B enzyme (Homo sapiens (Human), UniProt P27338); assay: Measurement of MAO-B inhibitory activity (MAO-Glo Assay); settings: read-out: MAO-B IC50 value;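 note: luminescence read-out, compound preincubated 10 min with enzyme then reacted 60 min at room temperature, inhibition relative to enzyme reaction without compound, blank lacking enzyme and compound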
Sequence of MAO-B enzyme (P27338 whole entry): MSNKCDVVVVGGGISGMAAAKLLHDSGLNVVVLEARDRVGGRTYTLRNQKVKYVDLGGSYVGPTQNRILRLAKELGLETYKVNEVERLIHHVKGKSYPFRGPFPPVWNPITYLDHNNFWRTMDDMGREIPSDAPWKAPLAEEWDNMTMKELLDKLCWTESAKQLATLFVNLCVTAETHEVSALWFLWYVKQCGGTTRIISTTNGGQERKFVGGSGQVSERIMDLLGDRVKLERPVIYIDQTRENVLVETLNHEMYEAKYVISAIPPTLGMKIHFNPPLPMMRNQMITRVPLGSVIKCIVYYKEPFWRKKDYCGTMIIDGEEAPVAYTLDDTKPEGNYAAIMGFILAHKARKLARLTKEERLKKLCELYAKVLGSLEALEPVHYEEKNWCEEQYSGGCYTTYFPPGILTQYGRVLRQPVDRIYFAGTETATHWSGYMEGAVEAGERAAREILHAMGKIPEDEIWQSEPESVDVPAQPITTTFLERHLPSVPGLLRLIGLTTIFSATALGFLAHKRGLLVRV

Sequence of MAO-A enzyme (P21397 whole entry): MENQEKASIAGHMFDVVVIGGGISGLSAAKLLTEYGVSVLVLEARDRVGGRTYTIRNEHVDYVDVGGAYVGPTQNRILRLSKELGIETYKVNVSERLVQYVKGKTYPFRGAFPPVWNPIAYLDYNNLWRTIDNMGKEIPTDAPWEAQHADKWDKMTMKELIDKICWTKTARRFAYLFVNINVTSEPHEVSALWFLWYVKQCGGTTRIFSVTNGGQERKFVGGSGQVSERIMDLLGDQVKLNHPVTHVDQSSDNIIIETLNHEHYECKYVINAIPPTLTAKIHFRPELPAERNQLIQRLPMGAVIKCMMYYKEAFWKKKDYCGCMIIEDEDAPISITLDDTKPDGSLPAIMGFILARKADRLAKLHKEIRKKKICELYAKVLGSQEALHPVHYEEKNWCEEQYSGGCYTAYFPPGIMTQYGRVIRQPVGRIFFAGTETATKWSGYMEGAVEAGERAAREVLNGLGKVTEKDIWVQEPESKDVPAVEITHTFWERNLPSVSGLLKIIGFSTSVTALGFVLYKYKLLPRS

Compound | IC50 [1] [µM] | IC50 [2] [µM] | IC50 [3] [µM]
CCN1C(=O)COc2cc(NC(=O)c3cccc([C@@H]4C[C@H]4NCC4CC4)c3)ccc21 (relative stereo) [Example 149, 3-(trans-2-((cyclopropylmethyl)amino)cyclopropyl)-N-(4-ethyl-3-oxo-3,4-dihydro-2H-1,4-benzoxazin-7-yl)benzamide trifluoroacetate] | > 10 | < 0.1 | > 10
O=C(Nc1cnn(CC(F)(F)F)c1)c1cccc([C@@H]2C[C@H]2NCC2CC2)c1 (relative stereo) [Example 151, 3-(trans-2-((cyclopropylmethyl)amino)cyclopropyl)-N-(1-(2,2,2-trifluoroethyl)-1H-pyrazol-4-yl)benzamide hydrochloride] | > 10 | < 0.1 | > 10
Cc1cc(NC(=O)c2cccc([C@@H]3C[C@H]3NCC3CC3)c2)sn1 (relative stereo) [Example 152, 3-(trans-2-((cyclopropylmethyl)amino)cyclopropyl)-N-(3-methyl-1,2-thiazol-5-yl)benzamide hydrochloride] | > 10 | < 0.1 | > 10
CC(C)(C)CN[C@@H]1C[C@H]1c1cccc(C(=O)NC2CC(F)(F)C2)c1 (relative stereo) [Example 154, N-(3,3-difluorocyclobutyl)-3-(trans-2-((2,2-dimethylpropyl)amino)cyclopropyl)benzamide hydrochloride] | > 10 | < 0.1 | > 10
Cc1nnc(NC(=O)c2cccc([C@@H]3C[C@H]3NCC(C)(C)C)c2)s1 (relative stereo) [Example 158, 3-(trans-2-((2,2-dimethylpropyl)amino)cyclopropyl)-N-(5-methyl-1,3,4-thiadiazol-2-yl)benzamide dihydrochloride] | > 10 | < 0.1 | > 10
O=C(Nc1cnn(-c2ccc(F)cc2)c1)c1cccc([C@@H]2C[C@H]2NC2CCOCC2)c1 (relative stereo) [Example 196, N-(1-(4-fluorophenyl)-1H-pyrazol-4-yl)-3-(trans-2-(tetrahydro-2H-pyran-4-ylamino)cyclopropyl)benzamide dihydrochloride] | > 10 | < 0.1 | > 10
O=C(Nc1cnn(-c2ccc(F)cc2)c1)c1cccc([C@@H]2C[C@H]2NC2CCS(=O)(=O)CC2)c1 (relative stereo) [Example 197, 3-(trans-2-((1,1-dioxidotetrahydro-2H-thiopyran-4-yl)amino)cyclopropyl)-N-(1-(4-fluorophenyl)-1H-pyrazol-4-yl)benzamide dihydrochloride] | > 10 | < 0.1 | > 10
O=C(NC1CCCC1)c1cccc([C@@H]2C[C@H]2NC2CCN(C3CC3)CC2)c1 (relative stereo) [Example 199, N-cyclopentyl-3-(trans-2-((1-cyclopropylpiperidin-4-yl)amino)cyclopropyl)benzamide dihydrochloride] | > 10 | < 0.1 | > 10
CN1CCC(N[C@@H]2C[C@H]2c2cccc(C(=O)NC3CCCC3)c2)CC1 (relative stereo) [Example 200, N-cyclopentyl-3-(trans-2-((1-methylpiperidin-4-yl)amino)cyclopropyl)benzamide dihydrochloride] | > 10 | < 0.1 | > 10
O=C(Nc1cnn(CC2CC2)c1)c1cccc([C@@H]2C[C@H]2NC2CCC2)c1 (relative stereo) [Example 201, 3-(trans-2-(cyclobutylamino)cyclopropyl)-N-(1-(cyclopropylmethyl)-1H-pyrazol-4-yl)benzamide dihydrochloride] | > 10 | < 0.1 | > 10
